Tests used:
Format in all cases: cell-based
Human bone marrow cells [1] = test: Cumulative cell production by cell lineage in growth factor supplemented LTBMCs over the first 6.5 weeks (Example 5, Table 4); details: first 6.5 weeks of culture
From the text: Cells, hematopoietic progenitor cell assays, LTBMCs, and statistical analyses were as in Example 1.

Human bone marrow cells [2] = test: Population balance: cumulative production of BFU-E removed and differentiated in HGF supplemented LTBMCs (Example 5, Table 6)
From the text: (§1) Production of Progenitor Cells from Stem Cells. Although the most primitive hematopoietic cells that can be directly assayed are the progenitor cells; CFU-GEMM, CFU-GM, and BFU-E, the presence and activity or earlier stem cells can be inferred by the continued production of progenitor cells. Thus, progenitor cell production is an indirect measure of primitive stem cell activity. One can assay stem cells, therefore, by analyzing the kinetics of the progenitor cell pool. The four process rates that determine the progenitor cell pool size are: V1: The rate of production of progenitor cells by more undifferentiated stem cells; V2: The rate of loss of progenitor cells through the act of sampling of nonadherent cells from the culture; V3: The rate of loss of progenitor cells by their differentiation to mature cells of a particular lineage; V4: The rate of death of progenitor cells. The initial number, C0, of each progenitor cell species can be determined by assay at culture initiation. The question that we wish to answer is; Are stem cells being stimulated to produced progenitor cells—i.e. is V1 greater than zero? Cell death, V4, cannot be assessed. V2 however, can be measured by assaying the nonadherent cells removed from culture, and V3 can be estimated from nonadherent cell production data. A conservative estimate of the rate of progenitor cell differentiation, V3, can be determined by assuming that each progenitor cell has 10 divisions remaining to become a terminally differentiated cell. Therefore, each progenitor cell is equivalent to 2^10 (1024) mature cells. From the total number of mature cells produced of a specific lineage, the number of progenitor cells (BFU-E and CFU-GM) that differentiated can be back-calculated. Therefore, if the removal and differentiation of progenitor cells (V2+V3) exceeds the numbers of progenitor cells inoculated, Co, then progenitor cells must have been produced, and V1 is greater than zero.

Human bone marrow cells [3] = test: Cumulative number of progenitor cells removed from rapidly perfused HGF supplemented LTBMCs (Example 5, Table 5)
Description: Hematopoietic progenitor cell assay: Nonadherent hematopoietic cells removed from culture were counted and plated at 1·10^5 cells/ml or fewer cells in methylcellulose. GM-CSF and Epo were added to the methylcellulose at 20 ng/ml and 2 U/ml, respectively. The cells were plated in 24 well plates at 0.25 ml/well and incubated at 37° C. for 14 days. The colonies were then counted under an inverted microscope and colonies greater than 50 cells were scored as GM-colony forming units (CFU-GM), erythroid burst-forming unit (BFU-E), or granulocyte erythroid megakaryocyte macrophage-colony forming unit (CFU-GEMM). Cells, hematopoietic progenitor cell assays, LTBMCs, and statistical analyses were as in Example 1.

Human bone marrow cells [4] = test: Population balance: cumulative production of CFU-GM removed and differentiated in HGF supplemented LTBMCs (Example 5, Table 7)
From the text: as §1

[5] = IL-3 1 ng/ml, GM-CSF 1 ng/ml, Epo 0.1 U/ml, IL-6 10 U/ml, G-CSF 0.1 ng/ml
[6] = back-calculated assuming each progenitor cell is equivalent to 2^10 (1024) mature cells
[7] = cumulative, rapidly perfused LTBMCs
[8] = rapidly perfused HGF supplemented LTBMCs

GM-CSF: hematopoietic growth factor, 1 ng/ml (Amgen Biologicals, Cat. No. 13050)
Cumulative cell production: Early Granulocytes (EG) (Human bone marrow cells [1]; [5]): 2.7 ×10^6 cells per culture | Cumulative cell production: Erythroid (E) (Human bone marrow cells [1]; [5]): 0.11 ×10^6 cells per culture | Cumulative cell production: Late Granulocytes (LG) (Human bone marrow cells [1]; [5]): 6.8 ×10^6 cells per culture | Cumulative cell production: Macrophages (Mo) (Human bone marrow cells [1]; [5]): 2.1 ×10^6 cells per culture | ratio (LG/EG) (Human bone marrow cells [1]; late to early granulocytes): 2.5 | Estimated number of BFU-E that differentiated (V3) (Human bone marrow cells [2]; [6]): 100 | Number of erythroid cells removed (×10^4) (V3) (Human bone marrow cells [2]; [7]): 0.1 ×10^4 | Number of BFU-E removed (plated) (V3) (Human bone marrow cells [2]; every fourth biweekly sampling assayed, others by linear interpolation, inoculum 2900 BFU-E): 800 | Total number of BFU-E (V3) (Human bone marrow cells [2]; removed plus differentiated, inoculum 2900): 900 | increase in the total number of CFU-GEMM removed from culture (Human bone marrow cells [3]; [7]): 1.6 fold | effect on total CFU-GM (Human bone marrow cells [3]; individual growth factor): only a slight increase | cumulative number of progenitor cells removed: BFU-E (Human bone marrow cells [3]; [8]): 800 | cumulative number of progenitor cells removed: CFU-GEMM (Human bone marrow cells [3]; [8]): 80 | cumulative number of progenitor cells removed: CFU-GM (Human bone marrow cells [3]; [8]): 2200 | Estimated number of CFU-GM that differentiated (V3) (Human bone marrow cells [4]; [6]): 11,700 | Number of GM cells removed (×10^4) (V3) (Human bone marrow cells [4]; [7]): 11.7 ×10^4 | Number of CFU-GM removed (plated) (V2) (Human bone marrow cells [4]; every fourth biweekly sampling assayed, others by linear interpolation, inoculum 2500 CFU-GM): 2200 | Total number of CFU-GM (V3) (Human bone marrow cells [4]; removed plus differentiated): 13,900

— patent US6667034B2, “METHODS FOR REGULATING THE SPECIFIC LINEAGES OF CELLS PRODUCED IN A HUMAN HEMATOPOIETIC CELL CULTURE, METHODS FOR ASSAYING THE EFFECT OF SUBSTANCES ON LINEAGE-SPECIFIC CELL PRODUCTION, AND CELL COMPOSITIONS PRODUCED BY THESE CULTURES” (The Regents of the University of Michigan, priority 1989, dated 2003)
